Results on ten compounds are retold here after ChEMBL document CHEMBL1201862, “PubChem BioAssay data set” (2004).

SMILES strings stand for the structures.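 Growth conditions: 96-well plates. Treatment: test compound, 48 hours, 5 concentrations. Analysis: linear interpolation between bracketing concentrations; unreached endpoints set to highest concentration. GI50: concentration for 50% inhibition of growth.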 The source made the active and inactive calls. No stated cut-off is given here; in the data, active = GI50 up to about 1.1 µM and inactive = higher.

What all share (test): NCI anticancer screen, dose series, 48 h
Experiment [1] has as its system SNB-78.
Experiment [2] concerns SF-295.
The subject of experiment [3] is SK-MEL-2.
Experiment [4] deals with U-251.
Experiment [5] concerns K562.
The test system of experiment [6] is SW-620.
Experiment [7] has as its system HOP-62.
Experiment [8] has as its system NCI-H522.
The test system of experiment [9] is CAKI-1.
Experiment [10] concerns SK-MEL-28.
Experiment [11] deals with SNB-75.
Experiment [12] concerns SNB-19.
The test system of experiment [13] is HT-29.
For experiment [14], the system named is SN12C.
The subject of experiment [15] is A498.
Experiment [16] relates to M14.

`NC1=NC(Cn2nc(-c3ccccc3)c3ccccc3c2=O)=NNC(=O)N1`: the GI50 in experiment [1], in experiment [2], in experiment [3], in [4], in experiment [5] and in experiment [6] was > 100 µM (inactive) throughout. Besides, the GI50 in [7], in experiment [8], in experiment [9], in experiment [10], in [11] and in [12] was > 100 µM (inactive) in each case. The GI50 in experiment [13], in [14], in experiment [15] and in experiment [16] was > 100 µM (inactive) each time.

Turning to `CCSc1c2ccccc2c(-c2nc(F)nc(F)n2)n1CCc1ccccc1`, the GI50 in experiment [1], in [2], in [3], in experiment [4], in [5] and in experiment [6] was > 100 µM (inactive) each time. Also, the GI50 in [7], in experiment [8], in experiment [9], in experiment [10], in experiment [12] and in [13] was > 100 µM (inactive) throughout. For the same compound, the GI50 in experiment [14] is > 100 µM (inactive); in experiment [15] it was 86.5 µM (inactive); in experiment [16], > 100 µM (inactive).

Regarding `CC1(C)CC(=O)C(C(=O)C(=O)NC2=C(Cl)C(=O)c3ccccc3C2=O)C(=O)C1`, the GI50 in experiment [1] is > 100 µM (inactive); in experiment [2], > 100 µM (inactive); in experiment [3], > 100 µM (inactive); in experiment [4], 82.2 µM (inactive); in [5] it was 32 µM (inactive); in experiment [6] it was > 100 µM (inactive). The GI50 in experiment [7] was > 100 µM (inactive); in experiment [8], 24 µM (inactive); in [9], 71.8 µM (inactive); in [10], > 100 µM (inactive); in [11], 71.1 µM (inactive); in experiment [12], > 100 µM (inactive). The GI50 was 80.7 µM (inactive) in experiment [13], 73.6 µM (inactive) in [14], > 100 µM (inactive) in [15] and > 100 µM (inactive) in [16].

Turning to `CC(=O)OC1CCCn2c1nc1c2C(=O)C(C)=C(N2CC2)C1=O` (configuration not stated), the GI50 in experiment [1] was 0.454 µM (active); in experiment [2], 0.16 µM (active); in experiment [3], 0.277 µM (active); in [4], 0.201 µM (active); in experiment [5], 0.891 µM (active); in experiment [6], 0.167 µM (active). Further, the GI50 in experiment [7] was 0.216 µM (active); in experiment [8], 0.156 µM (active); in experiment [9] it was 0.296 µM (active); in [10] it was 0.522 µM (active); in [11], 0.301 µM (active); in [12], 0.338 µM (active). The GI50 in experiment [13] was 0.208 µM (active); in experiment [14], 0.308 µM (active); in experiment [15], 0.161 µM (active); in [16] it was 0.163 µM (active).

`COc1ccc([C@@H]2CC(=O)N2)cc1`: the GI50 in [1], in [2], in experiment [3], in experiment [4], in experiment [5] and in experiment [7] was > 100 µM (inactive) throughout. Further, the GI50 in experiment [8], in experiment [9], in [10], in experiment [11], in [12] and in [13] was > 100 µM (inactive) each time. Also, the GI50 in experiment [14], in experiment [15] and in experiment [16] was > 100 µM (inactive) in each case.

Consider `O=c1[nH]c(=O)n(C2OC(COP(=O)(O)OP(=O)(O)O)C(O)C2O)cc1F` (configuration not stated), for which the GI50 in experiment [1] is 5.79 µM (inactive); in experiment [2], 0.822 µM (active); in experiment [3], 6.79 µM (inactive); in experiment [4], 0.391 µM (active); in experiment [5], 0.184 µM (active); in experiment [6], 0.171 µM (active). Moreover, the GI50 was 2.24 µM (inactive) in experiment [7]; 2.48 µM (inactive) in [8]; 0.368 µM (active) in experiment [9]; 2.13 µM (inactive) in [10]; 8.65 µM (inactive) in experiment [11]; 0.743 µM (active) in [12]. In addition, the GI50 is 0.716 µM (active) in [13], 0.916 µM (active) in [14], 6.25 µM (inactive) in experiment [15] and 1.55 µM (inactive) in experiment [16].

As to `CN1CCC(CN2c3ccccc3Sc3ccccc32)CC1`, the GI50 in [1] was 15.8 µM (inactive); in experiment [2], 15.8 µM (inactive); in [3] it was 17.1 µM (inactive); in experiment [4] it was 15.7 µM (inactive); in [5], 13.5 µM (inactive); in [6], 15.3 µM (inactive). The GI50 in experiment [7] is 18 µM (inactive); in experiment [8], 14.9 µM (inactive); in [9], 4.93 µM (inactive); in experiment [10], 11 µM (inactive); in experiment [12], 15.7 µM (inactive); in experiment [13], 12.7 µM (inactive). Further, the results for the GI50 in [14], in [15] and in experiment [16] were 19.1 µM (inactive), 15.6 µM (inactive) and 13 µM (inactive), respectively.

With `O=C1C[C@@H]2CCCC[C@@H]2C12SCCS2`, the GI50 in experiment [1], in experiment [2], in [3], in experiment [4], in experiment [5] and in experiment [6] was > 100 µM (inactive) throughout. For the same compound, the GI50 was > 100 µM (inactive) in [7]; 69 µM (inactive) in [8]; > 100 µM (inactive) in experiment [9]; 89.3 µM (inactive) in experiment [10]; 61.9 µM (inactive) in [11]; > 100 µM (inactive) in experiment [12]. Moreover, the GI50 in experiment [14] and in [15] was > 100 µM (inactive) each time.

In the case of `COC1C2C[C@@H](O)CCC2C(C(=O)OCCl)C[C@H]1O` (some centres not stated), the GI50 in experiment [1], in experiment [3], in [4], in experiment [5], in experiment [6] and in experiment [7] was > 100 µM (inactive) each time. Further, the GI50 in experiment [8], in experiment [9], in [10], in experiment [11], in experiment [12] and in experiment [14] was > 100 µM (inactive) in each case. The GI50 in experiment [15] and in experiment [16] was > 100 µM (inactive) in each case.

For the compound `c1ccc2c(CNCCCCCCNCc3cccc4ccccc34)cccc2c1`, the GI50 is 9.44 µM (inactive) in experiment [1]; 12.2 µM (inactive) in experiment [2]; 1.65 µM (inactive) in experiment [3]; 10.7 µM (inactive) in experiment [4]; 1.56 µM (inactive) in [5]; 4.06 µM (inactive) in experiment [6]. Also, the GI50 in [7] was 16.1 µM (inactive); in [8], 2.32 µM (inactive); in experiment [9], 7.38 µM (inactive); in experiment [10], 1.85 µM (inactive); in experiment [11] it was 2.31 µM (inactive); in [13], 2.23 µM (inactive). In addition, the GI50 in experiment [14] was 12.4 µM (inactive); in experiment [15], 18.7 µM (inactive); in [16] it was 1.79 µM (inactive).
